This is an account of results in paper PMC5746216, “CYP51 is an essential drug target for the treatment of primary amoebic meningoencephalitis (PAM)” (PLoS Neglected Tropical Diseases, 2017).

In assay [1] the target is T1, sterol 14-demethylase (NfCYP51) (Naegleria fowleri, UniProt A0A2H4A2U9).
T1 construct: gene NF0102700; 34 N-terminal membrane anchoring residues replaced with MAKKTSSKGKL
T1 sequence (A0A2H4A2U9 12-460): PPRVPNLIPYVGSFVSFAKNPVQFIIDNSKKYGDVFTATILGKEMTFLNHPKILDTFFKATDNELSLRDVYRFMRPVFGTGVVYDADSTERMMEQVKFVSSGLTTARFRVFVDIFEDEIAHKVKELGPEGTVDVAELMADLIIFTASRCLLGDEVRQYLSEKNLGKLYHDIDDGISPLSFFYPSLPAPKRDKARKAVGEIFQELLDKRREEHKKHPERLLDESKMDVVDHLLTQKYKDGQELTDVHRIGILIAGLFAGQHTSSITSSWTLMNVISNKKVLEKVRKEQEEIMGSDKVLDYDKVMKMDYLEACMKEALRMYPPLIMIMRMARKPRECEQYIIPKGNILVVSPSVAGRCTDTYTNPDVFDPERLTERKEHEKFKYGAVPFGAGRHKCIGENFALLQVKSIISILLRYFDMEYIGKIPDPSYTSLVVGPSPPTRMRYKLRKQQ
Nature of the assay: co-crystal structure at […] Å; UV-vis type II titration. It is filed as binding.

Assay [2] addresses T1, sterol 14-demethylase (NfCYP51). The assay is described as follows: UV-vis spectral binding titration (type I difference spectrum).

Take `OC(Cn1cncn1)(Cn1cncn1)c1ccc(F)cc1F` [Fluconazole]: in assay [1], the “co-crystal structure at 2.70 Å; UV-vis type II titration” value is listed as “fluconazole, binds NfCYP51 with affinity roughly an order of magnitude exceeding that of natural substrate, 31-norlanosterol”. One may read the Kd as the constant that tells how readily two partners part at equilibrium. High values mean weaker binding, low ones tighter binding. In assay [2], `CC(C)=CCC[C@@H](C)[C@H]1CC[C@@]2(C)C3=C(CC[C@]12C)[C@@]1(C)CC[C@H](O)[C@@H](C)[C@@H]1CC3` [compound 14, 31-Norlanosterol] gave a Kd of 124 ± 25 nM.
